Each molecule was assayed against p300 HAT domain (residues 1287-1666) (Homo sapiens (Human), UniProt Q09472) (assay: p300 HAT SPA assay (scintillation proximity assay, acetylation of biotinylated H3(1-21) peptide)). Details: average of at least 2 replicate titrations.
Type: biochemical
Protocol: In a typical experiment the p300 HAT inhibitory activity of the compounds described herein was determined in accordance with the following experimental method.
The expressed protein was purified by Ni2+ affinity, followed by anion exchange chromatography. Appropriate fractions were pooled and buffer exchanged into 20 mM Hepes pH 7.5, 150 mM NaCl, and 1 mM TCEP.
35 μL of the reaction volume was transferred to a 384-well streptavidin FlashPlate (PerkinElmer) using a Bravo liquid handler (Velocity 11) and incubated for 1.5 hr at RT. […] Data were analyzed in Genedata to determine inhibitor IC50 values.

Chain of p300 HAT domain (residues 1287-1666) (Q09472 1287-1666): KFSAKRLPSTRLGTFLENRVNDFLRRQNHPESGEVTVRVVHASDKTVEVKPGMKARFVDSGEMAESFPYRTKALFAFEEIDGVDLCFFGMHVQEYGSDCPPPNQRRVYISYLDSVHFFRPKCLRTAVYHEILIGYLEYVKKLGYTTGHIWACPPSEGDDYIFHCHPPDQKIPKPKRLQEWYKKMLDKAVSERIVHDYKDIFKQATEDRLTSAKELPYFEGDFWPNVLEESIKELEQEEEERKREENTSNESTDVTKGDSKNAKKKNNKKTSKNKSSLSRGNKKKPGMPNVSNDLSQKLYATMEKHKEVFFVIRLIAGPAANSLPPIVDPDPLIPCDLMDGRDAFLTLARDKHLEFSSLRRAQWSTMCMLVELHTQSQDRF

**Q.** How did the IC50 turn out when `CCN1CCN(c2ccc(NC(=O)C(NC[C@@H](C)c3ccc(C#N)cc3)c3ccccc3)nc2)CC1=O` (single isomer, unassigned) [102 Isomer 1] was run?
**A.** 30.8 nM

**Q.** How did the IC50 turn out when `C[C@H](CNC(C(=O)Nc1ccc(-c2cnn(C)c2)cn1)c1cncc(F)c1)c1ccc(C#N)cc1` (single isomer, unassigned) [129 Isomer 1] was run?
**A.** 75.4 nM

**Q.** Which IC50 does the source give for `CC(CNC(C(=O)Nc1ccc(-n2cnc(C(C)(C)C)c2)cn1)c1ccccc1)c1ccc(C#N)cc1` (single isomer, unassigned) [59 Isomer 1] here?
**A.** 1500 nM

**Q.** With “(S,R)-, (R,S)-, (S,S)-, (R,R)-(2-((2-(4-cyanophenyl)propyl)amino)-N-(5-(1-(difluoromethyl)-1H-pyrazol-4-yl)pyridin-2-yl)-2-phenylacetamide [20 Isomer 1]” as the molecule, how does the IC50 read?
**A.** 925 nM

**Q.** Which IC50 does the source give for `CC(CNC(C(=O)Nc1ccc(-c2cnn(C(C)(C)C)c2)cn1)c1ccccc1)c1ccc(C#N)cc1` (single isomer, unassigned) [54 Isomer 1] here?
**A.** 383 nM

**Q.** For `N#Cc1ccc(CCNC(C(=O)Nc2ccc(C3CC3)cn2)c2ccccc2)cc1` (single isomer, unassigned) [42 Isomer 2], which IC50 is on record?
**A.** 3000 nM

**Q.** How did the IC50 turn out when `Cn1cc(-c2ccnc(NC(=O)C(NCCc3ccc(C#N)cc3)c3ccccc3)c2)cn1` (single isomer, unassigned) [122 Isomer 2] was run?
**A.** 48900 nM

**Q.** With `Cn1cc(-c2ccc(NC(=O)[C@@H](NCCc3ccc(Cl)cc3)c3ccccc3)cc2)cn1` (single isomer, unassigned) [5 Isomer 2] as the molecule, how does the IC50 read?
**A.** > 5000 nM

**Q.** With `CCCCCCc1cccc(C(NCCc2ccc(C#N)cc2)C(=O)Nc2ccc(-c3cnn(C)c3)cn2)c1` (single isomer, unassigned) [118 Isomer 2] as the molecule, how does the IC50 read?
**A.** 1900 nM

**Q.** `CC(CNC(C(=O)Nc1ccc(-c2cnn(C)n2)cn1)c1ccccc1)c1ccc(C#N)cc1` (single isomer, unassigned) [98 Isomer 1] was tested. Which IC50 did it give?
**A.** 571 nM

**Q.** With `CC(CNC(C(=O)Nc1ccc(-c2cnn(C(C)(C)C#N)c2)cn1)c1ccccc1)c1ccc(C#N)cc1` (single isomer, unassigned) [47 Isomer 1] as the molecule, how does the IC50 read?
**A.** 448 nM

**Q.** With `COc1ccccc1C(NCCc1ccc(C#N)cc1)C(=O)Nc1ccc(-c2cnn(C)c2)cn1` (single isomer, unassigned) [87 Isomer 2] as the molecule, how does the IC50 read?
**A.** > 2000 nM

**Q.** Which IC50 does the source give for `CC(CNC(C(=O)Nc1ccc(-c2cn[nH]c2)cn1)c1ccccc1)c1ccc(C#N)cc1` (single isomer, unassigned) [104 Isomer 1] here?
**A.** 1370 nM

**Q.** How did the IC50 turn out when `CC(CNC(C(=O)Nc1ccc(-n2cnc(C(C)(C)C)c2)cn1)c1ccccc1)c1ccc(C#N)cc1` (single isomer, unassigned) [59 Isomer 3] was run?
**A.** > 2000 nM

**Q.** For `N#Cc1ccc(CCNC(C(=O)Nc2ccc(N3CCOCC3)cn2)c2ccccc2)cc1` (single isomer, unassigned) [81 Isomer 1], which IC50 is on record?
**A.** 139 nM

**Q.** With `CC(CNC(C(=O)Nc1ccc(N2CCN(CC(F)(F)F)C(=O)C2)cn1)c1ccccc1)c1ccc(C#N)cc1` (single isomer, unassigned) [103 Isomer 4] as the molecule, how does the IC50 read?
**A.** > 2000 nM

**Q.** `CC(CNC(C(=O)Nc1ccc(-c2cnn(C)c2)cn1)c1ccccc1)c1ccc(C#N)cc1F` (single isomer, unassigned) [90 Isomer 4] was tested. Which IC50 did it give?
**A.** > 2000 nM

**Q.** For `Cc1ncc(C(C)CNC(C(=O)Nc2ccc(-c3cnn(C)c3)cn2)c2ccccc2)cn1` (single isomer, unassigned) [150 Isomer 4], which IC50 is on record?
**A.** 622 nM

**Q.** With `CC(CNC(C(=O)Nc1ccc(-c2cnn(C(C)(C)CO)c2)cn1)c1ccccc1)c1ccc(C#N)cc1` (single isomer, unassigned) [8 Isomer 4] as the molecule, how does the IC50 read?
**A.** 19.6 nM

**Q.** For `CC(CNC(C(=O)Nc1ccc(-c2cnn(C)c2)cc1)c1ccccc1)c1ccc(C#N)cc1` (single isomer, unassigned) [82 Isomer 1], which IC50 is on record?
**A.** > 5000 nM

**Q.** With `N#Cc1ccc(CCNC(C(=O)Nc2ccc(N3CCCC3)cn2)c2ccccc2)cc1` (single isomer, unassigned) [37 Isomer 2] as the molecule, how does the IC50 read?
**A.** 3730 nM

**Q.** How did the IC50 turn out when `CC1C(=O)N(C)CCN1c1ccc(NC(=O)C(NC[C@@H](C)c2ccc(C#N)cc2)c2ccccc2)nc1` (single isomer, unassigned) [126 Isomer 3] was run?
**A.** > 2000 nM

**Q.** For `Cn1cc(-c2ccc(NC(=O)C(NCCn3cc(C#N)cn3)c3ccccc3)nc2)cn1` (single isomer, unassigned) [144 Isomer 2], which IC50 is on record?
**A.** 1070 nM

**Q.** `CN1CCN(c2ccc(NC(=O)C(NCCc3ccc(C#N)cc3)c3ccccc3)nc2)CCC1=O` (single isomer, unassigned) [71 Isomer 1] was tested. Which IC50 did it give?
**A.** 86.9 nM

**Q.** Which IC50 does the source give for `Cc1ccc(CCNC(C(=O)Nc2ccc(-c3cnn(C)c3)cn2)c2ccccc2)cn1` (single isomer, unassigned) [141 Isomer 1] here?
**A.** 95.1 nM

**Q.** With `N#Cc1ccc(CCNC(C(=O)Nc2ccc(N3CC4(COC4)C3)cn2)c2ccccc2)cc1` (single isomer, unassigned) [80 Isomer 2] as the molecule, how does the IC50 read?
**A.** > 2000 nM

**Q.** `CO[C@@H]1CCN(c2ccc(NC(=O)C(NCC(C)c3ccc(C#N)cc3)c3ccccc3)nc2)C1` (single isomer, unassigned) [92 Isomer 2] was tested. Which IC50 did it give?
**A.** 11.5 nM

**Q.** For `CC(CNC(C(=O)Nc1ccc(-c2cnn(C(C)(C)C)c2)cn1)c1ccccc1)c1ccc(C#N)cc1` (single isomer, unassigned) [54 Isomer 4], which IC50 is on record?
**A.** 1970 nM

**Q.** Which IC50 does the source give for `N#Cc1ccc(CCNC(C(=O)Nc2ccc(N3CCCC3)nc2)c2ccccc2)cc1` (single isomer, unassigned) [35 Isomer 1] here?
**A.** > 5000 nM

**Q.** Which IC50 does the source give for `Cn1cc(-c2cnc(NC(=O)C(NCCc3ccc(C#N)cc3)c3ccccc3)c(Cl)c2)cn1` (single isomer, unassigned) [43 Isomer 2] here?
**A.** > 5000 nM

**Q.** `CO[C@@H]1CCN(c2ccc(NC(=O)C(NCC(C)c3ccc(C#N)cc3)c3ccccc3)nc2)C1` (single isomer, unassigned) [92 Isomer 1] was tested. Which IC50 did it give?
**A.** 881 nM

**Q.** How did the IC50 turn out when `CC1(C)CCN(c2ccc(NC(=O)C(NCCc3ccc(C#N)cc3)c3ccccc3)nc2)CC1` (single isomer, unassigned) [65 Isomer 2] was run?
**A.** > 5000 nM

**Q.** How did the IC50 turn out when `Cn1cc(-c2ccc(NC(=O)C(NCCc3ccc(C#N)cc3)c3ccc(Cl)cc3)nc2)cn1` (single isomer, unassigned) [67 Isomer 2] was run?
**A.** 216 nM

**Q.** Which IC50 does the source give for `Cn1cc(-c2ccc(NC(=O)C(NCC3(c4ccc(Cl)cc4)CC3)c3ccccc3)nc2)cn1` (single isomer, unassigned) [97 Isomer 2] here?
**A.** > 2000 nM

**Q.** `Cn1cc(-c2ccc(NC(=O)C(NCCc3ccc(S(N)(=O)=O)cc3)c3ccccc3)cc2)cn1` (single isomer, unassigned) [4 Isomer 1] was tested. Which IC50 did it give?
**A.** 4990 nM

**Q.** Which IC50 does the source give for `Cn1cc(-c2ccc3c(c2)CCCN3C(=O)[C@@H](NCCc2ccc(C#N)cc2)c2ccccc2)cn1` (single isomer, unassigned) [151 Isomer 1] here?
**A.** > 5000 nM

**Q.** With `CC(CNC(C(=O)Nc1ccc(-c2cnn(C(C)(C)C#N)c2)cn1)c1ccccc1)c1ccc(C#N)cc1` (single isomer, unassigned) [47 Isomer 2] as the molecule, how does the IC50 read?
**A.** 24.2 nM

**Q.** Which IC50 does the source give for `Cn1cc(-c2ccc(NC(=O)C(NCCc3ccc(C#N)cc3)c3cccc(C(F)(F)F)c3)nc2)cn1` (single isomer, unassigned) [117 Isomer 2] here?
**A.** > 2000 nM

**Q.** `Cc1cc(C#N)ccc1CCNC(C(=O)Nc1ccc(-c2cnn(C)c2)cn1)c1ccccc1` (single isomer, unassigned) [41 Isomer 2] was tested. Which IC50 did it give?
**A.** 1790 nM

**Q.** `C[C@H](CNC(C(=O)Nc1ccc(C2CC(=O)N(C)C2)cn1)c1ccccc1)c1ccc(C#N)cc1` (single isomer, unassigned) [109 Isomer 1] was tested. Which IC50 did it give?
**A.** > 2000 nM

**Q.** For `N#Cc1ccc(CCNC(C(=O)Nc2ccc(C3CCC3)cn2)c2ccccc2)cc1` (single isomer, unassigned) [46 Isomer 1], which IC50 is on record?
**A.** > 5000 nM

**Q.** With `Cn1cc(-c2ncc(NC(=O)C(NCCc3ccc(C#N)cc3)c3ccccc3)cn2)cn1` (single isomer, unassigned) [23 Isomer 1] as the molecule, how does the IC50 read?
**A.** > 5000 nM

**Q.** How did the IC50 turn out when `Cn1cc(-c2ccc(NC(=O)C(NCCc3ccc(C#N)cc3C(F)(F)F)c3ccccc3)nc2)cn1` (single isomer, unassigned) [95 Isomer 2] was run?
**A.** 1010 nM

**Q.** With `CC(CNC(C(=O)Nc1ccc(-c2cnn(C)c2)cn1)c1cnn(C)c1)c1ccc(C#N)cc1` (single isomer, unassigned) [127 Isomer 3] as the molecule, how does the IC50 read?
**A.** > 2000 nM

**Q.** `Cc1c(-c2ccc(NC(=O)C(NC[C@@H](C)c3ccc(C#N)cc3)c3ccccc3)nc2)cnn1C` (single isomer, unassigned) [114 Isomer 1] was tested. Which IC50 did it give?
**A.** 528 nM

**Q.** With `Cc1n[nH]c(C)c1-c1ccc(NC(=O)C(NC[C@@H](C)c2ccc(C#N)cc2)c2ccccc2)nc1` (single isomer, unassigned) [133 Isomer 1] as the molecule, how does the IC50 read?
**A.** 1230 nM

**Q.** How did the IC50 turn out when `CN1CCN(c2ccc(NC(=O)[C@@H](NCCc3ccc(Cl)cc3)c3ccccc3)cc2)CC1` (single isomer, unassigned) [17 Isomer 2] was run?
**A.** > 5000 nM

**Q.** Which IC50 does the source give for `CC(CNC(C(=O)Nc1ccc(-c2cnn(CC(F)(F)F)c2)cn1)c1ccccc1)c1ccc(C#N)cc1` (single isomer, unassigned) [83 Isomer 1] here?
**A.** > 2000 nM

**Q.** With `CNC(=O)Cn1cc(-c2ccc(NC(=O)C(NC[C@@H](C)c3ccc(C#N)cc3)c3ccccc3)nc2)cn1` (single isomer, unassigned) [146 Isomer 1] as the molecule, how does the IC50 read?
**A.** 993 nM

**Q.** How did the IC50 turn out when `Cn1cc(-c2ccc(NC(=O)C(NCCn3cc(C#N)cn3)c3ccccc3)nc2)cn1` (single isomer, unassigned) [144 Isomer 1] was run?
**A.** > 2000 nM

**Q.** Which IC50 does the source give for `CO[C@H]1CCN(c2ccc(NC(=O)C(NCC(C)c3ccc(C#N)cc3)c3ccccc3)nc2)C1` (single isomer, unassigned) [93 Isomer 4] here?
**A.** > 2000 nM

**Q.** How did the IC50 turn out when `CC(CNC(C(=O)Nc1ccc(-c2cnn(C)n2)cn1)c1ccccc1)c1ccc(C(F)(F)F)cc1` (single isomer, unassigned) [99 Isomer 4] was run?
**A.** 28.3 nM

**Q.** With `Cc1ccc(C(C)CNC(C(=O)Nc2ccc(-c3cnn(C)c3)cn2)c2ccccc2)cn1` (single isomer, unassigned) [143 Isomer 3] as the molecule, how does the IC50 read?
**A.** > 2000 nM

**Q.** With `Cc1nc(NC(=O)C(NCC(C)c2ccc(C#N)cc2)c2ccccc2)ccc1-c1cnn(C)c1` (single isomer, unassigned) [39 Isomer 4] as the molecule, how does the IC50 read?
**A.** 304 nM

**Q.** How did the IC50 turn out when `CC(CNC(C(=O)Nc1ccc(N2CCN(C)C(=O)C2)cn1)c1ccccc1)c1ccc(C#N)cc1` (single isomer, unassigned) [101 Isomer 3] was run?
**A.** 355 nM

Reference: patent publication US11274090B2, “P300/CBP HAT inhibitors” (Constellation Pharmaceuticals, Inc., priority 2018, dated 2022)
